One experiment deals with DLD1 BRCA2 (−/−) cells. Briefly: 7-day cell viability assay (CellTiter-Glo), DLD1 BRCA2 (−/−). Format: cell-based, human. The conditions noted are these: 7-day CellTiter-Glo, n=2, read-out: Viability IC50 (uM) DLD1 BRCA2 null. Summed up:
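7-day growth assay in DLD1 cells with or without BRCA2; seeding densities chosen to keep log-linear growth. Compound: 10 uM top, 3-fold, 9 points. Endpoint: CTG ATP luminescence at RT.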

A further experiment has as its system DLD1 WT cells. Briefly: 7-day cell viability assay (CellTiter-Glo), DLD1 parental (WT). The conditions noted are these: 7-day CellTiter-Glo, n=2. Format: cell-based, human. The method, then: Cell lines DLD1 WT and DLD1 BRCA2 (−/−) (Horizon Discovery Cat No. HD PAR-008 and HD-105-007) were plated in 384-well culture plates at seeding densities of 100cells/50 ul/well and 200 cells/50 uL/well respectively. The seeding densities are pre-determined from the growth curve kinetics performed to ensure log linear phase of cell growth for these 2 cell lines. These assay plates are then placed in the incubator at 37° C., 5% CO2, relative humidity >90% for a few hours before addition of test compounds. Compounds are dispensed using the Tecan HPD300 or Echo based on the plate map in the appropriate wells of the 384-well plates. The cells are treated with nine-point dose response with 3-fold serial dilutions of test compounds starting at 10 uM top concentration. After addition of the test compounds, the plates are incubated at 37° C., 5% CO2, relative humidity >90% for 7 days. CellTiter-Glo (Promega Cat. No. G7573), ATP detection reagent is prepared according to manufacturer's specifications. Cell assay plates are removed from incubator and bring to room temperature (RT) by letting them sit at bench top for at least 15 min. Using the MultiDrop liquid handler or a multichannel pipette, 35 μL/well of CTG is added and the plates are then placed shakes for 5 seconds, RT.

Where two headings read alike, the source gives them in different places. A value given as a limit tells only on which side of the number the result lay.

As a reminder, the IC50 is the point on the concentration scale where inhibition reaches its midpoint. Consider `COc1cnc(Cl)cc1-c1cc(C)ncc1C(=O)Nc1nc2c(s1)CN(C(=O)c1cccc(OC)c1Cl)C2` [Example 396, 2′-chloro-N-(5-(2-chloro-3-methoxybenzoyl)-5,6-dihydro-4H-pyrrolo[3,4-d]thiazol-2-yl)-5′-methoxy-6-methyl-[4,4′-bipyridine]-3-carboxamide], for which the IC50 in the experiment with DLD1 BRCA2 (−/−) cells (Homo sapiens, DLD-1, 168 h) is 0.001 to 0.1 µM; with DLD1 WT cells (Homo sapiens, DLD-1, 168 h), no less than 10 µM.
The like results for `COc1cnc(Cl)cc1-c1cc(C)ncc1C(=O)Nc1nc2c(s1)CN(C(=O)c1nc(C(F)(F)F)c(C#N)cc1C)C2` [Example 1022, 2′-chloro-N-(5-(5-cyano-3-methyl-6-(trifluoromethyl)picolinoyl)-5,6-dihydro-4H-pyrrolo[3,4-d]thiazol-2-yl)-5′-methoxy-6-methyl-[4,4′-bipyridine]-3-carboxamide] were, in that order, 0.001 to 0.1 µM and no less than 10 µM.
In the case of `COc1cnc(Cl)cc1-c1cc(C)ncc1C(=O)Nc1nc2c(s1)CN(C(=O)c1cc(C)cc(Cl)n1)C2` [Example 392, 2′-chloro-N-(5-(6-chloro-4-methylpicolinoyl)-5,6-dihydro-4H-pyrrolo[3,4-d]thiazol-2-yl)-5′-methoxy-6-methyl-[4,4′-bipyridine]-3-carboxamide], the IC50 in the experiment with DLD1 BRCA2 (−/−) cells (Homo sapiens, DLD-1, 168 h) is 0.1 to 0.25 µM; in the experiment on DLD1 WT cells (Homo sapiens, DLD-1, 168 h) it was no less than 10 µM.
The like results for `COc1cnc(Cl)cc1-c1cc(C)ncc1C(=O)Nc1nc2c(s1)CN(C(=O)c1nccc(Cl)c1C(F)F)C2` [Example 926, 2′-chloro-N-(5-(4-chloro-3-(difluoromethyl)picolinoyl)-5,6-dihydro-4H-pyrrolo[3,4-d]thiazol-2-yl)-5′-methoxy-6-methyl-[4,4′-bipyridine]-3-carboxamide] were, in that order, 0.001 to 0.1 µM and no less than 10 µM.
The like results for `COc1cnc(Cl)cc1-c1cc(C)ncc1C(=O)Nc1nc2c(s1)CN(C(=O)c1ccc(C(F)F)c(Cl)n1)C2` were, in that order, 0.001 to 0.1 µM and no less than 10 µM.
For `COc1cnc(Cl)cc1-c1cc(C)ncc1C(=O)Nc1nc2c(s1)CN(C(=O)c1nc(Cl)c(C(F)F)cc1F)C2` [Example 927, 2′-chloro-N-(5-(6-chloro-5-(difluoromethyl)-3-fluoropicolinoyl)-5,6-dihydro-4H-pyrrolo[3,4-d]thiazol-2-yl)-5′-methoxy-6-methyl-[4,4′-bipyridine]-3-carboxamide], in that order: 0.001 to 0.1 µM and no less than 10 µM.
On to “2′-chloro-N-(5-(5-chloro-4-(difluoromethyl)pyrimidine-2-carbonyl)-5,6-dihydro-4H-pyrrolo[3,4-d]thiazol-2-yl)-5′-methoxy-6-methyl-[4,4′-bipyridine]-3-carboxamide [Example 644]”, for which the half-inhibitory concentration (IC50) was 0.1 to 0.25 µM with DLD1 BRCA2 (−/−) cells and no less than 10 µM in the experiment on DLD1 WT cells.
As for `COc1nnc(C(F)F)cc1-c1cc(C)ncc1C(=O)Nc1nc2c(s1)CN(C(=O)c1nccc(C(F)(F)F)c1C)C2` [Example 1024, 4-(6-(difluoromethyl)-3-methoxypyridazin-4-yl)-6-methyl-N-(5-(3-methyl-4-(trifluoromethyl)picolinoyl)-5,6-dihydro-4H-pyrrolo[3,4-d]thiazol-2-yl)nicotinamide], the IC50 was 0.001 to 0.1 µM in the experiment with DLD1 BRCA2 (−/−) cells (Homo sapiens, DLD-1, 168 h) and no less than 10 µM in the experiment with DLD1 WT cells (Homo sapiens, DLD-1, 168 h).
For `COc1cnc(Cl)cc1-c1cc(C)ncc1C(=O)Nc1nc2c(s1)CN(C(=O)c1cc(C)c(C(F)(F)F)c(C)n1)C2`, in that order: 0.001 to 0.1 µM and no less than 10 µM.
For `COc1nc(C(F)(F)F)ccc1C(=O)N1Cc2nc(NC(=O)c3cnc(C)cc3-c3cc(Cl)nnc3OC)sc2C1` [Example 996, 4-(6-chloro-3-methoxypyridazin-4-yl)-N-(5-(2-methoxy-6-(trifluoromethyl)nicotinoyl)-5,6-dihydro-4H-pyrrolo[3,4-d]thiazol-2-yl)-6-methylnicotinamide], in that order: 0.001 to 0.1 µM and no less than 10 µM.
For `COc1cnc(Cl)cc1-c1cc(C)ncc1C(=O)Nc1nc2c(s1)CN(C(=O)c1ccc(C(F)F)c(C)n1)C2`, in that order: 0.001 to 0.1 µM and no less than 10 µM.
In the case of `COc1cnc(Cl)cc1-c1cc(C)ncc1C(=O)Nc1nc2c(s1)CN(C(=O)c1ncc(C(F)F)c(C)n1)C2`, the half-inhibitory concentration (IC50) with DLD1 BRCA2 (−/−) cells (Homo sapiens, DLD-1, 168 h) was 0.001 to 0.1 µM; in the experiment with DLD1 WT cells (Homo sapiens, DLD-1, 168 h), no less than 10 µM.
For `COc1ccc(C#N)cc1-c1cc(C)ncc1C(=O)Nc1nc2c(s1)CN(C(=O)c1ccc(C(F)(F)F)nc1OC)C2` [Example 1005, 4-(5-cyano-2-methoxyphenyl)-N-(5-(2-methoxy-6-(trifluoromethyl)nicotinoyl)-5,6-dihydro-4H-pyrrolo[3,4-d]thiazol-2-yl)-6-methylnicotinamide], in that order: 0.001 to 0.1 µM and no less than 10 µM.
For `COc1nc(C(F)(F)F)ccc1C(=O)N1Cc2nc(NC(=O)c3cnc(C)cc3-c3cc(C(F)F)cnc3OC)sc2C1` [Example 1032, 5-(difluoromethyl)-2-methoxy-N-(5-(2-methoxy-6-(trifluoromethyl)nicotinoyl)-5,6-dihydro-4H-pyrrolo[3,4-d]thiazol-2-yl)-6′-methyl-[3,4′-bipyridine]-3′-carboxamide], in that order: 0.001 to 0.1 µM and no less than 10 µM.
Regarding “4-(5-Cyano-2-methoxyphenyl)-N-(5-(3-(difluoromethyl)-4-methoxybenzoyl)-5,6-dihydro-4H-pyrrolo[3,4-d]thiazol-2-yl)-6-methylnicotinamide [Example 486]”, the IC50 in the experiment with DLD1 BRCA2 (−/−) cells is 0.001 to 0.1 µM; with DLD1 WT cells it was no less than 10 µM.
Turning to `COc1cnc(Cl)cc1-c1cc(C)ncc1C(=O)Nc1nc2c(s1)CN(C(=O)c1nc(OC)c(C(F)(F)F)cc1C)C2` [Example 987, 2′-chloro-5′-methoxy-N-(5-(6-methoxy-3-methyl-5-(trifluoromethyl)picolinoyl)-5,6-dihydro-4H-pyrrolo[3,4-d]thiazol-2-yl)-6-methyl-[4,4′-bipyridine]-3-carboxamide], the IC50 with DLD1 BRCA2 (−/−) cells (Homo sapiens, DLD-1, 168 h) is 0.001 to 0.1 µM; in the experiment on DLD1 WT cells (Homo sapiens, DLD-1, 168 h), no less than 10 µM.
The like results for `COc1cnc(Cl)cc1-c1cc(C)ncc1C(=O)Nc1nc2c(s1)CN(C(=O)c1nc(C)c(OC(F)(F)F)cc1C)C2` [Example 1028, 2′-chloro-N-(5-(3,6-dimethyl-5-(trifluoromethoxy)picolinoyl)-5,6-dihydro-4H-pyrrolo[3,4-d]thiazol-2-yl)-5′-methoxy-6-methyl-[4,4′-bipyridine]-3-carboxamide] were, in that order, 0.001 to 0.1 µM and no less than 10 µM.
For `COc1cnc(Cl)cc1-c1cc(C)ncc1C(=O)Nc1nc2c(s1)CN(C(=O)c1ccc(C(F)F)c(OC)n1)C2`, in that order: 0.001 to 0.1 µM and 5 to 10 µM.
In the case of `CCc1nc(C(F)(F)F)ccc1C(=O)N1Cc2nc(NC(=O)c3cnc(C)cc3-c3cc(Cl)ncc3OC)sc2C1` [Example 970, 2′-chloro-N-(5-(2-ethyl-6-(trifluoromethyl)nicotinoyl)-5,6-dihydro-4H-pyrrolo[3,4-d]thiazol-2-yl)-5′-methoxy-6-methyl-[4,4′-bipyridine]-3-carboxamide], the IC50 with DLD1 BRCA2 (−/−) cells (Homo sapiens, DLD-1, 168 h) was 0.001 to 0.1 µM; with DLD1 WT cells (Homo sapiens, DLD-1, 168 h), no less than 10 µM.
Consider `COc1cnc(Cl)cc1-c1cc(C)ncc1C(=O)Nc1nc2c(s1)CN(C(=O)c1ccc(C(C)(F)F)cn1)C2`, for which the half-inhibitory concentration (IC50) in the experiment with DLD1 BRCA2 (−/−) cells (Homo sapiens, DLD-1, 168 h) is 0.001 to 0.1 µM; in the experiment with DLD1 WT cells (Homo sapiens, DLD-1, 168 h), no less than 10 µM.
The like results for `COc1cnc(Cl)cc1-c1cc(C)ncc1C(=O)Nc1nc2c(s1)CN(C(=O)c1nc(C(F)(F)F)ccc1C)C2` [Example 965, 2′-chloro-5′-methoxy-6-methyl-N-(5-(3-methyl-6-(trifluoromethyl)picolinoyl)-5,6-dihydro-4H-pyrrolo[3,4-d]thiazol-2-yl)-[4,4′-bipyridine]-3-carboxamide] were, in that order, 0.001 to 0.1 µM and no less than 10 µM.
The like results for `COc1cnc(Cl)cc1-c1cc(C)ncc1C(=O)Nc1nc2c(s1)CN(C(=O)c1nccc(C(F)(F)F)c1F)C2` [Example 961, 2′-chloro-N-(S-(3-fluoro-4-(trifluoromethyl)picolinoyl)-5,6-dihydro-4H-pyrrolo[3,4-d]thiazol-2-yl)-5′-methoxy-6-methyl-[4,4′-bipyridine]-3-carboxamide] were, in that order, 0.001 to 0.1 µM and no less than 10 µM.
The like results for `COc1cnc(Cl)cc1-c1cc(C)ncc1C(=O)Nc1nc2c(s1)CN(C(=O)c1nccc(C(F)F)c1OC)C2` [Example 966, 2′-chloro-N-(5-(4-(difluoromethyl)-3-methoxypicolinoyl)-5,6-dihydro-4H-pyrrolo[3,4-d]thiazol-2-yl)-5′-methoxy-6-methyl-[4,4′-bipyridine]-3-carboxamide] were, in that order, 0.001 to 0.1 µM and no less than 10 µM.
For the molecule “2′-chloro-N-(5-(3-chloro-5-(1,1-difluoroethyl)picolinoyl)-5,6-dihydro-4H-pyrrolo[3,4-d]thiazol-2-yl)-5′-methoxy-6-methyl-[4,4′-bipyridine]-3-carboxamide [Example 625]”, the IC50 in the experiment on DLD1 BRCA2 (−/−) cells was 0.1 to 0.25 µM; in the experiment with DLD1 WT cells, no less than 10 µM.
As for `COc1cnc(Cl)cc1-c1cc(C)ncc1C(=O)Nc1nc2c(s1)CN(C(=O)c1nccc(C(F)F)c1F)C2` [Example 949, 2′-chloro-N-(5-(4-(difluoromethyl)-3-fluoropicolinoyl)-5,6-dihydro-4H-pyrrolo[3,4-d]thiazol-2-yl)-5′-methoxy-6-methyl-[4,4′-bipyridine]-3-carboxamide], the IC50 is 0.001 to 0.1 µM in the experiment with DLD1 BRCA2 (−/−) cells (Homo sapiens, DLD-1, 168 h) and no less than 10 µM in the experiment with DLD1 WT cells (Homo sapiens, DLD-1, 168 h).

(Values after patent US20250230171A1 (MOMA Therapeutics, Inc., priority 2023, published 2025).)
